SMILES strings stand for the structures. Several values for one entry are separate records, joined by “and”; a condition that tells them apart may be missing. Identical values can stand only once. Like-named read-outs stand apart in the source and are kept apart here.

The values that follow come from paper PMC5463734, “Structure-guided optimization of quinoline inhibitors of Plasmodium N-myristoyltransferase” (MedChemComm, 2016).

Series [1] deals with T1, recombinant P. vivax NMT (PvNMT) (Plasmodium vivax, UniProt A5K1A2).
T1 sequence (A5K1A2 1-410): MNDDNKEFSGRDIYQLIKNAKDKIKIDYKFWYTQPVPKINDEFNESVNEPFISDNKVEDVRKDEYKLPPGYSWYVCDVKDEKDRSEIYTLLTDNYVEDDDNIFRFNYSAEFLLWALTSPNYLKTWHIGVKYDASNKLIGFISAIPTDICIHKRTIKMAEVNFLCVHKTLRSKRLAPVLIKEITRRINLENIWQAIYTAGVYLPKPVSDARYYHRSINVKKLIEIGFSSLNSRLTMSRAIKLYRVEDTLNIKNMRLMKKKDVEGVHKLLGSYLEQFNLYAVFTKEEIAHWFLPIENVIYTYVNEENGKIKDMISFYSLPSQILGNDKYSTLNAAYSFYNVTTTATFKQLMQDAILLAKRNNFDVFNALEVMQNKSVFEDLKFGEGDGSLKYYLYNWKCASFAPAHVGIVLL
Nature of the series: biochemical. Format: biochemical. Particulars: for LipE: lipophilic efficiency, LipE = –log(Ki) – clog P, based on PvNMT data; for Ki: recombinant enzyme, mean ± SD from duplicates, Ki app from IC50 by Cheng-Prusoff. The protocol:
(§1) The only residue in the inhibitor-binding pocket that differs between these NMTs is Tyr334 (Pv numbering), which is replaced by a phenylalanine in PfNMT.
(§2) Final compounds were tested using a previously described fluorogenic 96-well plate assay for PvNMT,2 PfNMT3 and […]
(§3) nonlinear regression fitting using GraFit 7.0 (Erithacus Software Ltd., U.K.). Apparent inhibition constants, Kiapp, were calculated from experimental IC50 using Cheng-Prussof equation.5

Series [2] concerns the target T2, recombinant H. sapiens NMT isoform 2 (HsNMT2) (Homo sapiens, UniProt O60551).
T2 sequence (O60551 1-498): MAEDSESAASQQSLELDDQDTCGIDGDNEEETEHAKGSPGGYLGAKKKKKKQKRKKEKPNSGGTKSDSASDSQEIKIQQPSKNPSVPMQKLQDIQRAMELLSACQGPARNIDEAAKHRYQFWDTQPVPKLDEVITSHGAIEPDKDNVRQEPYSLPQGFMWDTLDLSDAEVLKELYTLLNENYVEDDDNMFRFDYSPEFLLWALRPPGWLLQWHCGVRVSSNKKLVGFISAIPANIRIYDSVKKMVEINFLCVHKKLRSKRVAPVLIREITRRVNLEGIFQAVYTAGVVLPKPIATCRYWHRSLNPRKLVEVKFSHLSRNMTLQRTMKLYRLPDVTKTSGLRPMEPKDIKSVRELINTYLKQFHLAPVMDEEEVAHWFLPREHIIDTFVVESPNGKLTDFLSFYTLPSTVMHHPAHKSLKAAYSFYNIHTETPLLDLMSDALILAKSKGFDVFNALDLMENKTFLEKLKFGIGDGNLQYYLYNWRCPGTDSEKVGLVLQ
Nature of the series: fluorogenic 96-well plate enzymatic assay for HsNMT2 activity. Format: biochemical. Particulars: for Ki: recombinant enzyme, mean ± SD from duplicates, Ki app from IC50 by Cheng-Prusoff. The protocol:
as §2, §3

Series [3] has as its target T3, recombinant H. sapiens NMT isoform 1 (HsNMT1) (Homo sapiens, UniProt P30419).
T3 sequence (P30419 1-496): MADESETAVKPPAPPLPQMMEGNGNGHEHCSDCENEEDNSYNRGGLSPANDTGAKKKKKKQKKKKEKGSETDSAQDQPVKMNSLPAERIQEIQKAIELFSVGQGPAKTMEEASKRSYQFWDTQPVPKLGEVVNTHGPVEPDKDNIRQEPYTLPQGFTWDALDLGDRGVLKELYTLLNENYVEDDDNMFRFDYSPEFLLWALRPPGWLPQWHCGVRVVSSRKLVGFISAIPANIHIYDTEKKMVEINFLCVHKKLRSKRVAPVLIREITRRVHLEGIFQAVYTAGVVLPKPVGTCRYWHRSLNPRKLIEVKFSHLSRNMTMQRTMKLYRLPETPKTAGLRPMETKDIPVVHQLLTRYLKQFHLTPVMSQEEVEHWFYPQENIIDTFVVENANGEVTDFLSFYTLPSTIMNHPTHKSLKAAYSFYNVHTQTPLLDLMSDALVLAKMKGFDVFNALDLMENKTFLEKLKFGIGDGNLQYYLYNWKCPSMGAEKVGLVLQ
Nature of the series: fluorogenic 96-well plate enzymatic assay for HsNMT1 activity. Format: biochemical. Particulars: for Ki: recombinant enzyme, mean ± SD from duplicates, Ki app from IC50 by Cheng-Prusoff. The protocol:
as §2, §3

The target of series [4] is T4, recombinant P. falciparum NMT (PfNMT) (Plasmodium falciparum, UniProt Q9U419).
T4 sequence (Q9U419 1-410): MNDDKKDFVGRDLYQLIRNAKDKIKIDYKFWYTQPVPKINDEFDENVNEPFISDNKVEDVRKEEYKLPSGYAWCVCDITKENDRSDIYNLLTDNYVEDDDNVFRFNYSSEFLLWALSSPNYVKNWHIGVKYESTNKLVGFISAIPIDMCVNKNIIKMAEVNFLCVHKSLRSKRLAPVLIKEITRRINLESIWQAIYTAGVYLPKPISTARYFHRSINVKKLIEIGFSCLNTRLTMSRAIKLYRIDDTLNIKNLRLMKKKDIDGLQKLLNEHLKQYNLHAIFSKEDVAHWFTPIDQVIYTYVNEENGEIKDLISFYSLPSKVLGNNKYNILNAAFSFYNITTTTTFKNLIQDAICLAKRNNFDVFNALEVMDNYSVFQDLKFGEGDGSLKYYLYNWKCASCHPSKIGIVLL
Nature of the series: fluorogenic 96-well plate enzymatic assay for PfNMT activity. The format is biochemical. Particulars: for Ki: recombinant enzyme, mean ± SD from duplicates, Ki app from IC50 by Cheng-Prusoff; for totally inactive on PfNMT up to: highest concentration without activity. The protocol: as §1, §2, §3

For series [5], the target named is T1, recombinant P. vivax NMT (PvNMT). Set-up: method as in PMID 22439843. Particulars: recombinant enzyme; read-out: Ki app PvNMT; cited from earlier work.
Series [6] is described as follows: stability in phosphate buffered solutions used for enzymatic assay. Format: physicochemical. The source says:
It is well known that 2-cyanoethylthioethers can be cleaved in the presence of weak bases such as ammonia through a retro-Michael reaction.[27]

Series [7] is described as follows: solubility in assay buffer. Particulars: could not be evaluated.

In the case of `CCOC(=O)c1cnc2ccc(OCc3ccccc3)cc2c1[S+]([O-])CC` (stereo not drawn) [Compound 9], the LipE in series [1] is reported as 2.46. Also, the Ki in series [1] (read-out: Ki app PvNMT) was 1750 ± 120 nM; in series [2], above 10000 nM; in series [3] it was 3600 ± 300 nM; in series [4] (read-out: Ki app PfNMT) it was 5650 ± 1240 nM.
In the same order, the values of `CCOC(=O)c1cnc2ccc(OCc3ccccc3)cc2c1S(=O)(=O)CC` [Compound 10] are 2.34, 1780 ± 470 nM, above 10000 nM, above 10000 nM and above 10000 nM.
On to `CCOC(=O)c1cnc2ccc(OCc3ccc(NCCN)nc3)cc2c1SCC` [Compound 24], for which the LipE in series [1] was determined as 3.57. Also, the Ki was found to be 280 ± 20 nM in series [1] (read-out: Ki app PvNMT), 410 ± 70 nM in series [2], 50 ± 10 nM in series [3] and 1250 ± 80 nM in series [4] (read-out: Ki app PfNMT).
Take `CCCCc1c(C)nc2ccc(OC)cc2c1SCCC#N` [MRT00057965, 3-butyl-4-((2-cyanoethyl)thio)-6-methoxy-2-methylquinoline]: the “totally inactive on PfNMT up to” value in series [4] was above 100 µM.
Consider `CCOC(=O)c1cnc2ccc(OC)cc2c1SCCC#N` [Compound 1, ethyl 4-((2-cyanoethyl)thio)-6-methoxyquinoline-3-carboxylate], for which the Ki in series [5] was 4700 nM and 4740 nM. In addition, in series [6], the “stability in phosphate buffered solutions” value is reported as “fully stable”.
Consider `CCOC(=O)c1cnc2ccc(OCc3ccccc3)cc2c1SC(C)C` [Compound 6], for which the Ki in series [2] was above 10000 nM; in series [3] it was 4840 ± 640 nM; in series [4] (Ki app PfNMT), 1990 ± 300 nM.
For the compound `CCSc1c(C(=O)Nc2ccccc2)cnc2ccc(OCc3ccccc3)cc12` [Compound 16], in series [7], the solubility entry is “poorly soluble”.
Consider `CCOC(=O)c1cnc2ccc(OCc3ccccc3)cc2c1SCC` [Compound 7], for which the LipE in series [1] is reported as 1.42. Also, the Ki came to 440 ± 50 nM in series [1] (read-out: Ki app PvNMT), 4230 ± 530 nM in series [2], 1560 ± 220 nM in series [3] and 670 ± 40 nM in series [4] (read-out: Ki app PfNMT).
Consider `CCOC(=O)c1cnc2ccc(OCc3ccccc3)cc2c1SCCC#N` [Compound 4], for which, in series [1] (6-benzyloxy vs 6-methoxy compound 1), the “fold improvement in activity compared to the original methoxy compound” value was determined as 8 fold. The LipE in series [1] came out at 1.90. The Ki in series [1] (read-out: Ki app PvNMT) is 550 ± 60 nM; in series [3] it was above 10000 nM; in series [4] (read-out: Ki app PfNMT), above 10000 nM. Besides, the “totally inactive on PfNMT up to” value in series [4] is above 100 µM.
Consider `CCOCc1cnc2ccc(OCc3ccccc3)cc2c1SCC` [Compound 12], for which, in series [1], the LipE was 0.72. For the same compound, the Ki in series [1] (read-out: Ki app PvNMT) is 2920 ± 150 nM; in series [2] it was above 10000 nM; in series [3], above 10000 nM; in series [4] (read-out: Ki app PfNMT) it was 2690 ± 510 nM.
In the case of `CCOC(=O)c1cnc2ccc(OCc3ccccc3)cc2c1SC` [Compound 8], in series [1], the LipE was 0.69. Further, the Ki turned out to be 4140 ± 410 nM in series [1] (read-out: Ki app PvNMT) and 5900 ± 600 nM in series [4] (read-out: Ki app PfNMT).
Regarding `CCSc1c(C(=O)N(CC)CC)cnc2ccc(OCc3ccccc3)cc12` [Compound 14], the LipE in series [1] worked out at 1.80. For the same compound, the Ki is 410 ± 60 nM in series [1] (read-out: Ki app PvNMT), 3530 ± 400 nM in series [2], 1020 ± 130 nM in series [3] and 940 ± 90 nM in series [4] (read-out: Ki app PfNMT).
In the case of `CCNC(=O)c1cnc2ccc(OCc3ccccc3)cc2c1SCC` [Compound 13], the LipE in series [1] turned out to be 2.46. Besides, the Ki was 340 ± 50 nM in series [1] (read-out: Ki app PvNMT), above 10000 nM in series [2], 1050 ± 115 nM in series [3] and 960 ± 110 nM in series [4] (read-out: Ki app PfNMT). In addition, the “selectivity versus HsNMT2” value in series [2] (relative to PvNMT) is recorded as 30 fold. Moreover, the “selectivity versus HsNMT1” value in series [3] (relative to PvNMT) is 3 fold.
Turning to `CCCSc1c(C(=O)OCC)cnc2ccc(OCc3ccccc3)cc12` [Compound 5], the LipE in series [1] is listed as 0.22. In addition, the Ki in series [1] (read-out: Ki app PvNMT) was 2080 ± 140 nM; in series [2], above 10000 nM; in series [3], 3360 ± 370 nM; in series [4] (read-out: Ki app PfNMT), 1100 ± 80 nM. For the same compound, the “fold improvement in activity versus PfNMT” value in series [4] (n-propyl thioether vs 2-cyanoethyl thioether) is above 10 fold.
`CCSc1c(C(=O)Nc2nccs2)cnc2ccc(OCc3ccccc3)cc12` [Compound 17]: the solubility result in series [7] is recorded as “poorly soluble”.
Regarding `CCSc1c(C(=O)N2CCOCC2)cnc2ccc(OCc3ccccc3)cc12` [Compound 19], the figures for the Ki in series [1] (Ki app PvNMT), in series [2] and in series [4] (Ki app PfNMT) were 200 ± 20 nM, 590 ± 50 nM and 330 ± 20 nM, respectively.
With `CCSc1c(C(=O)N2CCCC2)cnc2ccc(OCc3ccccc3)cc12` [Compound 15], in series [1], the LipE was 1.74. The Ki is 960 ± 130 nM in series [1] (read-out: Ki app PvNMT), above 10000 nM in series [2], 1360 ± 210 nM in series [3] and 1520 ± 290 nM in series [4] (read-out: Ki app PfNMT).
In the same order, the values of `CCSc1c(C(=O)NCCO)cnc2ccc(OCc3ccccc3)cc12` [Compound 18] are 2.36, 2840 ± 380 nM, above 10000 nM, above 10000 nM and 8000 ± 3980 nM.
In the case of `CCSc1c(CO)cnc2ccc(OCc3ccccc3)cc12` [Compound 11], the LipE in series [1] stood at 1.57. For the same compound, the Ki in series [1] (read-out: Ki app PvNMT) was 4190 ± 550 nM; in series [2] it was above 10000 nM; in series [3], above 10000 nM; in series [4] (read-out: Ki app PfNMT), above 10000 nM.
